According to patent publication EP0687468A2, “Pharmaceutical composition for suppressing infiltration of eosinophils” (Toyo Boseki Kabushiki Kaisha, priority 1994, dated 1995):

How the values were obtained:
[1] = tested on: adhesion of eosinophils to vascular endothelial cells; test: Inhibition of adhesion of eosinophils to TNF-treated HUVEC; type: cell-based; conditions: test compound concentration at TNF treatment and adhesion reaction; HUVEC treated with 100 U/ml TNF for 6 hours; adhesion reaction 20 minutes; human peripheral blood eosinophils
Method: Human umbilical vein-derived endothelial cells (HUVEC) were placed in a single layer in a 96 well plate and treated with 100 U/mi tumor necrosis factor (TNF) for 6 hours. The eosinophils obtained from peripheral blood of healthy human were fluorescence-labeled and layered on the TNF-treated HUVEC. After adhesion reaction for 20 minutes, unadhered eosinophils were removed by washing and fluorescent intensity of each well of the plate was measured to determine the eosinophils adhered to the HUVEC. The test compound was added so that the concentration at TNF treatment and adhesion reaction was 10-^SM.

[2] = tested on: intraperitoneal infiltration of eosinophils; test: Intraperitoneal infiltration of eosinophils in rat (Ascaris extract induced); type: in vivo; conditions: 3 mg/kg orally once a day for 9 days; Asc-sensitized male Wistar rats; eosinophils counted 48 hours after antigen induction
Method: Ascaris extract (Asc, protein amount 8 mg) was intraperitoneally administered to male Wistar rats to sensitize them. Seven days later, 4 mg protein amount of Asc was intraperitoneally administered to induce intraperitoneal infiltration of eosinophils. Forty-eight hours after the antigen induction, abdominal cavity was washed, and the infiltrated eosinophils were counted. The test compound (3 mg/kg) was orally administered once a day for 9 days from the day of antigen sensitization to one day before recovery of the infiltrated intraperitoneal cells.

[3] = tested on: infiltration of eosinophils in the airway; test: Infiltration of eosinophils into bronchovesicles in rats (ovalbumin induced); type: in vivo; conditions: 10 mg/kg orally 5 minutes before and 5 hours after antigen induction; OA-sensitized male BN rats; bronchial wash 24 hours later
Method: An ovalbumin (OA) antigen (10 mg/kg) was intramuscularly administered to male BN rats, and 5 x 10^10 nonvial Bordetella pertussis cells were intraperitoneally administered to sensitize them. Fourteen days later, the rats were exposed to 2% OA to induce infiltration of eosinophils in the airway. Twenty-four hours later, bronchial tubes were washed and infiltrated cells were recovered to count the infiltrated eosinophils. The test compound (10 mg/kg) was orally administered 5 minutes before and 5 hours after the induction with antigen.

Compound | Suppression of adhesion of eosinophils (%) [1] | Suppression of infiltration of eosinophils (%) [2] | Suppression of infiltration of eosinophils (%) [3]
CC(=O)OCC(=O)Nc1cc(C#N)cc(N)c1Cl [3-(acetoxyacetylamino)-5-amino-4-chlorobenzonitrile] | 70% | 55% | 53%
N#Cc1cc(N)c(Cl)c(NC(=O)CO)c1 [3-amino-4-chloro-5-(hydroxyacetylamino)benzonitrile] | 74% | 54% | 48%
COCC(=O)Nc1cc(C#N)cc(N)c1Cl [3-amino-4-chloro-5-(methoxyacetylamino)benzonitrile] | 62% | 42% | 56%
